Data as given in PubChem BioAssay AID1963839 (Molecular Pharmacology Branch, DTP, NCI, 2024).

System: 817829-284-R-J1-PDC complex spheroid viability
Assay: Anticancer human tumor 817829-284-R-J1-PDC patient-derived colon adenocarcinoma cell line growth inhibition [POLQ]
Conditions: for IC50: curve of first compound; for viability, T/C: stronger effect = lower value
In short: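 Complex spheroid viability model combining PDC tumour cells with endothelial (HUVEC) and MSC stromal cells. Novobiocin, ART-558 or RP6685 were tested singly and in combination with standard and investigational anticancer drugs. Each was titrated in half-log steps from near clinical Cmax, or from 10 microM where Cmax was unknown.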

[1] = second compound 0.0316 µM, first compound 0.0316 µM
[2] = second compound 0.0316 µM, first compound 0.1 µM
[3] = second compound 0.1 µM, first compound 0.0316 µM
[4] = second compound 0.1 µM, first compound 0.1 µM
[5] = second compound 0.316 µM, first compound 0.0316 µM
[6] = second compound 0.316 µM, first compound 0.1 µM
[7] = second compound 1 µM, first compound 0.0316 µM
[8] = second compound 1 µM, first compound 0.1 µM
[9] = second compound 3.16 µM, first compound 0.0316 µM
[10] = second compound 3.16 µM, first compound 0.1 µM
[11] = second compound 10 µM, first compound 0.0316 µM
[12] = second compound 10 µM, first compound 0.1 µM
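Note: spheroids exposed to compounds for 7 days.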
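Throughout, for viability, T/C: 100% = DMSO vehicle-treated spheroids.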

SMILES: CC(=O)O[C@H]1C(=O)[C@@]2(C)[C@H]([C@H](OC(=O)c3ccccc3)[C@]3(O)C[C@H](OC(=O)[C@H](O)[C@@H](NC(=O)c4ccccc4)c4ccccc4)C(C)=C1C3(C)C)[C@]1(OC(C)=O)CO[C@@H]1C[C@@H]2O + Nc1ccc(C#CCN(C(=O)Cc2ncc(C(F)(F)F)cc2C(F)(F)F)c2ccc(F)cc2)nn1
- IC50 (second compound 0.0316 µM): < 9.49 nM
- IC50 (second compound 0.1 µM): < 9.49 nM
- IC50 (second compound 0.316 µM): < 9.49 nM
- IC50 (second compound 1 µM): < 9.49 nM
- IC50 (second compound 3.16 µM): < 9.49 nM
- IC50 (second compound 10 µM): < 9.49 nM
- viability, T/C (second compound 0.0316 µM, first compound 0.00949 µM): 5.03%
- viability, T/C (second compound 0.0316 µM, first compound 0.03 µM): 3.67%
- viability, T/C (second compound 0.0316 µM, first compound 0.0949 µM): 3.6%
- viability, T/C (second compound 0.0316 µM, first compound 0.3 µM): 4.54%
- viability, T/C (second compound 0.0316 µM, first compound 0.949 µM): 3.38%
- viability, T/C (second compound 0.0316 µM, first compound 3 µM): 3.49%
- viability, T/C (second compound 0.1 µM, first compound 0.00949 µM): 4.54%
- viability, T/C (second compound 0.1 µM, first compound 0.03 µM): 3.69%
- viability, T/C (second compound 0.1 µM, first compound 0.0949 µM): 3.4%
- viability, T/C (second compound 0.1 µM, first compound 0.3 µM): 3.32%
- viability, T/C (second compound 0.1 µM, first compound 0.949 µM): 3.65%
- viability, T/C (second compound 0.1 µM, first compound 3 µM): 3.64%
- viability, T/C (second compound 0.316 µM, first compound 0.00949 µM): 4.71%
- viability, T/C (second compound 0.316 µM, first compound 0.03 µM): 3.72%
- viability, T/C (second compound 0.316 µM, first compound 0.0949 µM): 3.26%
- viability, T/C (second compound 0.316 µM, first compound 0.3 µM): 3.47%
- viability, T/C (second compound 0.316 µM, first compound 0.949 µM): 3.51%
- viability, T/C (second compound 0.316 µM, first compound 3 µM): 3.52%
- viability, T/C (second compound 1 µM, first compound 0.00949 µM): 4.2%
- viability, T/C (second compound 1 µM, first compound 0.03 µM): 4.2%
- viability, T/C (second compound 1 µM, first compound 0.0949 µM): 3.64%
- viability, T/C (second compound 1 µM, first compound 0.3 µM): 3.16%
- viability, T/C (second compound 1 µM, first compound 0.949 µM): 3.49%
- viability, T/C (second compound 1 µM, first compound 3 µM): 3.91%
- viability, T/C (second compound 3.16 µM, first compound 0.00949 µM): 3.91%
- viability, T/C (second compound 3.16 µM, first compound 0.03 µM): 3.81%
- viability, T/C (second compound 3.16 µM, first compound 0.0949 µM): 3.99%
- viability, T/C (second compound 3.16 µM, first compound 0.3 µM): 3.89%
- viability, T/C (second compound 3.16 µM, first compound 0.949 µM): 3.75%
- viability, T/C (second compound 3.16 µM, first compound 3 µM): 3.61%
- viability, T/C (second compound 10 µM, first compound 0.00949 µM): 4.68%
- viability, T/C (second compound 10 µM, first compound 0.03 µM): 3.73%
- viability, T/C (second compound 10 µM, first compound 0.0949 µM): 3.81%
- viability, T/C (second compound 10 µM, first compound 0.3 µM): 3.76%
- viability, T/C (second compound 10 µM, first compound 0.949 µM): 3.38%
- viability, T/C (second compound 10 µM, first compound 3 µM): 3.83%

SMILES: CC[C@@]1(O)C(=O)OCc2c1cc1n(c2=O)Cc2cc3c(CN(C)C)c(O)ccc3nc2-1 + Nc1ccc(C#CCN(C(=O)Cc2ncc(C(F)(F)F)cc2C(F)(F)F)c2ccc(F)cc2)nn1
- IC50 (second compound 0.0316 µM): 8.46 nM
- IC50 (second compound 0.1 µM): 9.72 nM
- IC50 (second compound 0.316 µM): 11 nM
- IC50 (second compound 1 µM): 8.84 nM
- IC50 (second compound 3.16 µM): 12 nM
- IC50 (second compound 10 µM): 6.8 nM
- viability, T/C (second compound 0.0316 µM, first compound 0.000316 µM): 91.3%
- viability, T/C (second compound 0.0316 µM, first compound 0.001 µM): 99%
- viability, T/C (second compound 0.0316 µM, first compound 0.00316 µM): 85.9%
- viability, T/C (second compound 0.0316 µM, first compound 0.01 µM): 43.2%
- viability, T/C [1]: 24.2%
- viability, T/C [2]: 15.9%
- viability, T/C (second compound 0.1 µM, first compound 0.000316 µM): 90.2%
- viability, T/C (second compound 0.1 µM, first compound 0.001 µM): 86%
- viability, T/C (second compound 0.1 µM, first compound 0.00316 µM): 88.2%
- viability, T/C (second compound 0.1 µM, first compound 0.01 µM): 48.9%
- viability, T/C [3]: 20.9%
- viability, T/C [4]: 17.3%
- viability, T/C (second compound 0.316 µM, first compound 0.000316 µM): 106%
- viability, T/C (second compound 0.316 µM, first compound 0.001 µM): 93.3%
- viability, T/C (second compound 0.316 µM, first compound 0.00316 µM): 85%
- viability, T/C (second compound 0.316 µM, first compound 0.01 µM): 54.4%
- viability, T/C [5]: 21.3%
- viability, T/C [6]: 17.9%
- viability, T/C (second compound 1 µM, first compound 0.000316 µM): 111%
- viability, T/C (second compound 1 µM, first compound 0.001 µM): 115%
- viability, T/C (second compound 1 µM, first compound 0.00316 µM): 86.6%
- viability, T/C (second compound 1 µM, first compound 0.01 µM): 45.5%
- viability, T/C [7]: 24.4%
- viability, T/C [8]: 15.7%
- viability, T/C (second compound 3.16 µM, first compound 0.000316 µM): 95.1%
- viability, T/C (second compound 3.16 µM, first compound 0.001 µM): 94.3%
- viability, T/C (second compound 3.16 µM, first compound 0.00316 µM): 82%
- viability, T/C (second compound 3.16 µM, first compound 0.01 µM): 57.2%
- viability, T/C [9]: 20.1%
- viability, T/C [10]: 13.9%
- viability, T/C (second compound 10 µM, first compound 0.000316 µM): 93.8%
- viability, T/C (second compound 10 µM, first compound 0.001 µM): 91.2%
- viability, T/C (second compound 10 µM, first compound 0.00316 µM): 62.1%
- viability, T/C (second compound 10 µM, first compound 0.01 µM): 43.2%
- viability, T/C [11]: 25.6%
- viability, T/C [12]: 15.1%

SMILES: COc1cccc2c1C(=O)c1c(O)c3c(c(O)c1C2=O)CC(O)(C(=O)CO)CC3OC1CC(N)C(O)C(C)O1 (stereo unspecified) + Nc1ccc(C#CCN(C(=O)Cc2ncc(C(F)(F)F)cc2C(F)(F)F)c2ccc(F)cc2)nn1
- IC50 (second compound 0.0316 µM): < 31.6 nM
- IC50 (second compound 0.1 µM): < 31.6 nM
- IC50 (second compound 0.316 µM): < 31.6 nM
- IC50 (second compound 1 µM): < 31.6 nM
- IC50 (second compound 3.16 µM): < 31.6 nM
- IC50 (second compound 10 µM): < 31.6 nM
- viability, T/C [1]: 21.8%
- viability, T/C [2]: 21.2%
- viability, T/C (second compound 0.0316 µM, first compound 0.316 µM): 5.37%
- viability, T/C (second compound 0.0316 µM, first compound 1 µM): 0.34%
- viability, T/C (second compound 0.0316 µM, first compound 3.16 µM): 0.13%
- viability, T/C (second compound 0.0316 µM, first compound 10 µM): 0.41%
- viability, T/C [3]: 18.1%
- viability, T/C [4]: 21.5%
- viability, T/C (second compound 0.1 µM, first compound 0.316 µM): 6.2%
- viability, T/C (second compound 0.1 µM, first compound 1 µM): 0.54%
- viability, T/C (second compound 0.1 µM, first compound 3.16 µM): 0.2%
- viability, T/C (second compound 0.1 µM, first compound 10 µM): 0.48%
- viability, T/C [5]: 21.1%
- viability, T/C [6]: 17.4%
- viability, T/C (second compound 0.316 µM, first compound 0.316 µM): 6.38%
- viability, T/C (second compound 0.316 µM, first compound 1 µM): 0.38%
- viability, T/C (second compound 0.316 µM, first compound 3.16 µM): 0.13%
- viability, T/C (second compound 0.316 µM, first compound 10 µM): 0.65%
- viability, T/C [7]: 21.6%
- viability, T/C [8]: 22.7%
- viability, T/C (second compound 1 µM, first compound 0.316 µM): 5.1%
- viability, T/C (second compound 1 µM, first compound 1 µM): 0.6%
- viability, T/C (second compound 1 µM, first compound 3.16 µM): 0.16%
- viability, T/C (second compound 1 µM, first compound 10 µM): 0.62%
- viability, T/C [9]: 17.3%
- viability, T/C [10]: 15.6%
- viability, T/C (second compound 3.16 µM, first compound 0.316 µM): 5.54%
- viability, T/C (second compound 3.16 µM, first compound 1 µM): 0.25%
- viability, T/C (second compound 3.16 µM, first compound 3.16 µM): 0.19%
- viability, T/C (second compound 3.16 µM, first compound 10 µM): 0.51%
- viability, T/C [11]: 18.4%
- viability, T/C [12]: 21.1%
- viability, T/C (second compound 10 µM, first compound 0.316 µM): 4.32%
- viability, T/C (second compound 10 µM, first compound 1 µM): 0.29%
- viability, T/C (second compound 10 µM, first compound 3.16 µM): 0.26%
- viability, T/C (second compound 10 µM, first compound 10 µM): 0.52%
